Measured values published in paper PMC8161055, “Synthesis and α-Glucosidase Inhibition Activity of 2-[3-(Benzoyl/4-bromobenzoyl)-4-hydroxy-1,1-dioxido-2H-benzo[e][1,2]thiazin-2-yl]-N-arylacetamides: An In Silico and Biochemical Approach” (Molecules, 2021).
Read-outs that look alike come from different tables or passages of the source.

Experiments:
α-glucosidase = target: T1, α-glucosidase (Saccharomyces cerevisiae, UniProt P53341); experiment: biochemical; format: biochemical; settings: for inhibition at 200 µM: read-out: Inhibitions (%); for effectiveness as inhibitor compared to acarbose: ratio of IC50 values vs acarbose
T1 construct: purchased Sigma-Aldrich, Munich, Germany
T1 sequence (P53341 whole entry): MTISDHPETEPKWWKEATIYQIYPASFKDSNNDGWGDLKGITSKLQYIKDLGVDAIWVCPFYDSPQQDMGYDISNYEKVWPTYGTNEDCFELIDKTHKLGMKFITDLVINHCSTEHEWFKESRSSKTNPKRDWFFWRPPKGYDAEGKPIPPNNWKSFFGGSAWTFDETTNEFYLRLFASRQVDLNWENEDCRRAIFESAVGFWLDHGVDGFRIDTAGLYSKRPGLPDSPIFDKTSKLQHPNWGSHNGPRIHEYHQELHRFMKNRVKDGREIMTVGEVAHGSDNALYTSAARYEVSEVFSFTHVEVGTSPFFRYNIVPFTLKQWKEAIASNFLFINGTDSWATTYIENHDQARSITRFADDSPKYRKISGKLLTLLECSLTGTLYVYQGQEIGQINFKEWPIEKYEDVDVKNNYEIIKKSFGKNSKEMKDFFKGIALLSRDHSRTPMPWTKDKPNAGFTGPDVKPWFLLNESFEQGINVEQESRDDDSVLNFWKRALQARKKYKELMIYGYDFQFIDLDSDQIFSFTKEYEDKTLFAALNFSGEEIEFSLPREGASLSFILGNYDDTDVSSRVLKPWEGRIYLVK
Method: In vitro analysis of all the synthesized compounds was performed in order to justify the validity of in silico outcomes. Results were found in good agreement with the in silico study. […] A general spectrophotometric technique was used to perform the α-glucosidase inhibition assay with slight modifications. […] The experiment was repeated thrice and inhibition percentages were calculated using the following formula. % Inhibition = [(A control − A sample) / A control] × 100(1) where ‘A’ stands for absorbance.

human 11β-HSD1 = system: human 11β-HSD1; parameters: method as in PMID 21212546; settings: cited from earlier work

Row | Compound | IC50 (α-glucosidase; PNPG substrate, pH 6.8, 37 °C, read-out: IC50) [µM] | Inhibitions (%) (α-glucosidase; at 200 μM concentration) | inhibition at 200 µM (α-glucosidase) [%] | melting point [°C] | IC50 (α-glucosidase) [µM] | effectiveness as inhibitor compared to acarbose (α-glucosidase) | IC50 (human 11β-HSD1) [µM]
1 | 2-(3-(4-Bromobenzoyl)-4-hydroxy-1,1-dioxido-2H-benzo[e][1,2]thiazin-2-yl)-N-(4-methoxyphenyl)acetamide [Compound 12m] | 58.5 | 65 |  |  |  |  | 
2 | O=C(C1=C(O)c2ccccc2S(=O)(=O)N1)c1ccccc1 [Compound 9a, (4-Hydroxy-1,1-dioxido-2H-benzo[e][1,2]thiazin-3-yl)(phenyl)methanone] |  |  | 20 | 156 to 157 |  |  | 
3 | O=C(C1=C(O)c2ccccc2S(=O)(=O)N1)c1ccc(Br)cc1 [Compound 9b, (4-Bromophenyl)(4-hydroxy-1,1-dioxido-2H-benzo[e][1,2]thiazin-3-yl)methanone] |  |  | 55 | 144 to 146 | > 100 |  | 
4 | O=C(CN1C(C(=O)c2ccccc2)=C(O)c2ccccc2S1(=O)=O)Nc1ccccc1Cl [Compound 11a, 2-(3-Benzoyl-4-hydroxy-1,1-dioxido-2H-benzo[e][1,2]thiazin-2-yl)-N-(2-chlorophenyl)acetamide] |  |  | 39 | 141 to 142 |  |  | 
5 | O=C(CN1C(C(=O)c2ccccc2)=C(O)c2ccccc2S1(=O)=O)Nc1cccc(Cl)c1 [Compound 11b, 2-(3-Benzoyl-4-hydroxy-1,1-dioxido-2H-benzo[e][1,2]thiazin-2-yl)-N-(3-chlorophenyl)acetamide] |  |  | 32 | 182 to 184 |  |  | 
6 | O=C(CN1C(C(=O)c2ccccc2)=C(O)c2ccccc2S1(=O)=O)Nc1ccc(Cl)cc1 [Compound 11c, 2-(3-Benzoyl-4-hydroxy-1,1-dioxido-2H-benzo[e][1,2]thiazin-2-yl)-N-(4-chlorophenyl)acetamide] |  |  | 79 | 146 to 148 | 30.6 |  | 
7 | Cc1ccccc1NC(=O)CN1C(C(=O)c2ccccc2)=C(O)c2ccccc2S1(=O)=O [Compound 11d, 2-(3-Benzoyl-4-hydroxy-1,1-dioxido-2H-benzo[e][1,2]thiazin-2-yl)-N-(o-tolyl)acetamide] |  |  | 10 | 165 to 167 |  |  | 
8 | Cc1cccc(NC(=O)CN2C(C(=O)c3ccccc3)=C(O)c3ccccc3S2(=O)=O)c1 [Compound 11e, 2-(3-Benzoyl-4-hydroxy-1,1-dioxido-2H-benzo[e][1,2]thiazin-2-yl)-N-(m-tolyl)acetamide] |  |  | 15 | 177 to 178 |  |  | 
9 | Cc1ccc(NC(=O)CN2C(C(=O)c3ccccc3)=C(O)c3ccccc3S2(=O)=O)cc1 [Compound 11f, 2-(3-Benzoyl-4-hydroxy-1,1-dioxido-2H-benzo[e][1,2]thiazin-2-yl)-N-(p-tolyl)acetamide] |  |  | 37 | 136 to 137 |  |  | 
10 | O=C(CN1C(C(=O)c2ccccc2)=C(O)c2ccccc2S1(=O)=O)Nc1ccccc1[N+](=O)[O-] [Compound 11g, 2-(3-Benzoyl-4-hydroxy-1,1-dioxido-2H-benzo[e][1,2]thiazin-2-yl)-N-(2-nitrophenyl)acetamide] |  |  | 58 | 157 to 158 | 88.1 |  | 
11 | O=C(CN1C(C(=O)c2ccccc2)=C(O)c2ccccc2S1(=O)=O)Nc1cccc([N+](=O)[O-])c1 [Compound 11h, 2-(3-Benzoyl-4-hydroxy-1,1-dioxido-2H-benzo[e][1,2]thiazin-2-yl)-N-(3-nitrophenyl)acetamide] |  |  | 63 | 170 to 172 | 47.1 |  | 
12 | O=C(CN1C(C(=O)c2ccccc2)=C(O)c2ccccc2S1(=O)=O)Nc1ccc([N+](=O)[O-])cc1 [Compound 11i, 2-(3-Benzoyl-4-hydroxy-1,1-dioxido-2H-benzo[e][1,2]thiazin-2-yl)-N-(4-nitrophenyl)acetamide] |  |  | 77 | 194 to 195 | 40.4 |  | 
13 | O=C(CN1C(C(=O)c2ccccc2)=C(O)c2ccccc2S1(=O)=O)Nc1cccc(Br)c1 [Compound 11j, 2-(3-Benzoyl-4-hydroxy-1,1-dioxido-2H-benzo[e][1,2]thiazin-2-yl)-N-(3-bromophenyl)acetamide] |  |  | 50 | 163 to 166 | > 100 |  | 
14 | O=C(CN1C(C(=O)c2ccccc2)=C(O)c2ccccc2S1(=O)=O)Nc1ccc(Br)cc1 [Compound 11k, 2-(3-Benzoyl-4-hydroxy-1,1-dioxido-2H-benzo[e][1,2]thiazin-2-yl)-N-(4-bromophenyl)acetamide] |  |  | 13 | 150 to 153 |  |  | 
15 | COc1ccccc1NC(=O)CN1C(C(=O)c2ccccc2)=C(O)c2ccccc2S1(=O)=O [Compound 11l, 2-(3-Benzoyl-4-hydroxy-1,1-dioxido-2H-benzo[e][1,2]thiazin-2-yl)-N-(2-methoxyphenyl)acetamide] |  |  | 54 | 199 to 200 | > 100 |  | 
16 | COc1ccc(NC(=O)CN2C(C(=O)c3ccccc3)=C(O)c3ccccc3S2(=O)=O)cc1 [Compound 11m, 2-(3-Benzoyl-4-hydroxy-1,1-dioxido-2H-benzo[e][1,2]thiazin-2-yl)-N-(4-methoxyphenyl)acetamide] |  |  | 69 | 164 to 165 |  |  | 
17 | O=C(CN1C(C(=O)c2ccc(Br)cc2)=C(O)c2ccccc2S1(=O)=O)Nc1ccccc1Cl [Compound 12a, 2-(3-(4-Bromobenzoyl)-4-hydroxy-1,1-dioxido-2H-benzo[e][1,2]thiazin-2-yl)-N-(2-chlorophenyl)acetamide] |  |  | 79 | 180 to 181 | 18.2 | roughly three-fold | 
18 | O=C(CN1C(C(=O)c2ccc(Br)cc2)=C(O)c2ccccc2S1(=O)=O)Nc1cccc(Cl)c1 [Compound 12b, 2-(3-(4-Bromobenzoyl)-4-hydroxy-1,1-dioxido-2H-benzo[e][1,2]thiazin-2-yl)-N-(3-chlorophenyl)acetamide] |  |  | 47 | 148 to 150 |  |  | 
19 | O=C(CN1C(C(=O)c2ccc(Br)cc2)=C(O)c2ccccc2S1(=O)=O)Nc1ccc(Cl)cc1 [Compound 12c, 2-(3-(4-Bromobenzoyl)-4-hydroxy-1,1-dioxido-2H-benzo[e][1,2]thiazin-2-yl)-N-(4-chlorophenyl)acetamide] |  |  | 61 | 181 to 184 | > 100 |  | 
20 | Cc1ccccc1NC(=O)CN1C(C(=O)c2ccc(Br)cc2)=C(O)c2ccccc2S1(=O)=O [Compound 12d, 2-(3-(4-Bromobenzoyl)-4-hydroxy-1,1-dioxido-2H-benzo[e][1,2]thiazin-2-yl)-N-(o-tolyl)acetamide] |  |  | 76 | 193 to 194 | 20.8 | roughly three-fold | 
21 | Cc1cccc(NC(=O)CN2C(C(=O)c3ccc(Br)cc3)=C(O)c3ccccc3S2(=O)=O)c1 [Compound 12e, 2-(3-(4-Bromobenzoyl)-4-hydroxy-1,1-dioxido-2H-benzo[e][1,2]thiazin-2-yl)-N-(m-tolyl)acetamide] |  |  | 71 | 143 to 144 | 35.1 |  | 
22 | Cc1ccc(NC(=O)CN2C(C(=O)c3ccc(Br)cc3)=C(O)c3ccccc3S2(=O)=O)cc1 [Compound 12f, 2-(3-(4-Bromobenzoyl)-4-hydroxy-1,1-dioxido-2H-benzo[e][1,2]thiazin-2-yl)-N-(p-tolyl)acetamide] |  |  | 20 | 190 to 192 |  |  | 
23 | O=C(CN1C(C(=O)c2ccc(Br)cc2)=C(O)c2ccccc2S1(=O)=O)Nc1ccccc1[N+](=O)[O-] [Compound 12g, 2-(3-(4-Bromobenzoyl)-4-hydroxy-1,1-dioxido-2H-benzo[e][1,2]thiazin-2-yl)-N-(2-nitrophenyl)acetamide] |  |  | 76 | 177 to 178 | 24.2 |  | 
24 | O=C(CN1C(C(=O)c2ccc(Br)cc2)=C(O)c2ccccc2S1(=O)=O)Nc1cccc([N+](=O)[O-])c1 [Compound 12h, 2-(3-(4-Bromobenzoyl)-4-hydroxy-1,1-dioxido-2H-benzo[e][1,2]thiazin-2-yl)-N-(3-nitrophenyl)acetamide] |  |  | 58 | 208 to 209 | > 100 |  | 
25 | O=C(CN1C(C(=O)c2ccc(Br)cc2)=C(O)c2ccccc2S1(=O)=O)Nc1ccc([N+](=O)[O-])cc1 [Compound 12i, 2-(3-(4-Bromobenzoyl)-4-hydroxy-1,1-dioxido-2H-benzo[e][1,2]thiazin-2-yl)-N-(4-nitrophenyl)acetamide] |  |  | 33 | 210 to 212 |  |  | 
26 | O=C(CN1C(C(=O)c2ccc(Br)cc2)=C(O)c2ccccc2S1(=O)=O)Nc1cccc(Br)c1 [Compound 12j, 2-(3-(4-Bromobenzoyl)-4-hydroxy-1,1-dioxido-2H-benzo[e][1,2]thiazin-2-yl)-N-(3-bromophenyl)acetamide] |  |  | 12 | 145 to 147 |  |  | 
27 | O=C(CN1C(C(=O)c2ccc(Br)cc2)=C(O)c2ccccc2S1(=O)=O)Nc1ccc(Br)cc1 [Compound 12k, 2-(3-(4-Bromobenzoyl)-4-hydroxy-1,1-dioxido-2H-benzo[e][1,2]thiazin-2-yl)-N-(4-bromophenyl)acetamide] |  |  | 48 | 200 to 203 |  |  | 
28 | COc1ccccc1NC(=O)CN1C(C(=O)c2ccc(Br)cc2)=C(O)c2ccccc2S1(=O)=O [Compound 12l, 2-(3-(4-Bromobenzoyl)-4-hydroxy-1,1-dioxido-2H-benzo[e][1,2]thiazin-2-yl)-N-(2-methoxyphenyl)acetamide] |  |  | 34 | 186 to 187 |  |  | 
29 | O=C(CN1C(C(=O)Nc2ccccc2)=C(O)c2ccccc2S1(=O)=O)Nc1cccc(C(F)(F)F)c1 [derivative 3] |  |  |  |  |  |  | 0.041
